The results in this text go back to patent US20250114337A1, “METHODS FOR VASCULAR REGENERATION AND WOUND TREATMENT” (THE METHODIST HOSPITAL, priority 2022, published 2025).

One experiment deals with BJ fibroblasts. The experiment is described as follows: in vitro transdifferentiation of fibroblasts to induced endothelial cells (iECs). As to conditions: fibroblasts exposed during transdifferentiation protocol. The experiment is classed as cell-based, human. The source says: Innate immune activation is required for transdifferentiation. […] 131 (3): p. 300-9). iECs generated from this protocol manifest high fidelity for endothelial lineage. They incorporate acetylated LDL (FIG. 2B), form tubular networks (FIG. 2C), have similar transcriptomes as genuine endothelial cells, and increase capillary density and perfusion when injected into the ischemic hindlimb of the mouse (FIG. 2D) (Sayed, N., et al., Circulation, 2015. 131 (3): p. 300-9). This protocol can be utilized to study the role of O-GlcNAcylation in transdifferentiation in vitro.
O-GlcNAcylation is required for in vitro transdifferentiation. To define if the elevation of O-GlcNAcylation is required for transdifferentiation, fibroblasts were exposed to Thiamet G (TMG) (an OGA inhibitor that enhances O-GlcNAcylation) or DON (an inhibitor for GFAT that acts upstream in the hexosamine biosynthesis pathway and reduces O-GlcNAcylation). The number of iECs generated during transdifferentiation is increased when fibroblasts are exposed to TMG and decreased when exposed to DON (FIG. 5A). […] The role of O-GlcNAcylation of specific epigenetic regulars e.g., HIRA during transdifferentiation can also be addressed.
To define if the elevation of O-GlcNAcylation is required for transdifferentiation, inhibitors of O-GlcNAcylation including OSMI (an inhibitor for OGT) and DON (an inhibitor for GFAT that acts upstream in the hexosamine biosynthesis pathway and reduces O-GlcNAcylation) or an activator of O-GlcNAcylation. Thiamet G (TMG) (an OGA inhibitor that enhances O-GlcNAcylation), were delivered to BJ fibroblasts undergoing transdifferentiation. The number of CD31 expressing iECs generated during transdifferentiation decreases when exposed to OSMI or DON and increases when fibroblasts are exposed to TMG (FIG. 17B). Then OGT or OGA were knocked down using shRNA in the BJ fibroblasts (FIG. 17C) and performed transdifferentiation protocol in vitro.

Another experiment concerns ischemic hindlimb model. The experiment is described as follows: ischemic hindlimb model in fibroblast lineage tracing Fsp1-Cre: R26R-EYFP mice. The experiment is classed as in vivo, mouse. The conditions noted are these: 7 days post-surgery. As to the method: Using established transdifferentiation protocol and metabolomics profiling to assess the global metabolic changes during transdifferentiation. […] To determine the role of this metabolite in transdifferentiation, the effect of Thiamet G was assessed, an inhibitor of OGA, which enhances O-GlcNAcylation. Thiamet G increased transdifferentiation efficiency in vitro. In a fibroblast lineage tracing mice, Fsp1-Cre: R26R-EYFP mice, Thiamet G increased tissue O-glycnacylation, increased capillary density and limb perfusion, and increased the number of fibroblasts transdifferentiating into endothelial cells (i.e. FSP+CD31+ cell) in an ischemic hindlimb model.
Angiogenic transdifferentiation in limb ischemia. A fibroblast lineage tracing mouse model (Fsp1-Cre: R26R-EYFP) was used to detect transdifferentiation in vivo in a murine model of limb ischemia (Meng, S., et al., Circulation, 2020. 142 (17): p. 1647-1662). […] This population is abolished when the mice are treated with anti-inflammatory drugs, such as dexamethasone. Intriguingly, the disappearance of these cells is associated with a reduction in perfusion recovery and worsening clinical scores. Similar results are achieved when inflammatory signaling is impaired, as in Fsp1-Cre: Rela flox/flox mice. In these animals, NFκB signaling is blocked in the Fsp1+fibroblasts, associated with a dramatic reduction in transdifferentiated fibroblasts (i.e. YFP+CD144+ cells), and impaired perfusion (Meng. S., et al., Circulation, 2020. 142 (17): p. 1647-1662). […] Cluster 8 produced angiogenic cytokines, whereas Cluster 5 expressed genes associated with EC identity (i.e CD144). But only Cluster 5 could generate EC-like networks in Matrigel whereas other fibroblasts, including Cluster 8 fibroblasts, formed nodal structures typical of fibroblasts in Matrigel. The data support the idea that transdifferentiation may occur in vivo with tissue ischemia, and is dependent on inflammatory signaling. This model can be used to study the contribution of O-GlcNAcylation in transdifferentiation and limb ischemia recovery in vivo. A similar lineage tracing approach can be used with tamoxifen-inducible Col1A2-Cre/ERT: R26R-tdTomato mouse strain to study the contribution of O-GlcNAcylation in transdifferentiation and limb ischemia recovery in vivo.
To determine if O-GlcNAcylation enhances revascularization through transdifferentiation, fibroblasts lineage tracing Fsp1-Cre: R26R-EYFP mice strain were utilized where it was previously observed the in situ transdifferentiation phenomenon (FIG. 20A). In this model, all the fibroblasts expressing Fsp1 (fibroblast-specific protein1) are marked with YFP. With this model, a significant increase in the FSP-expressing cell progeny in the ischemic limb was identified compared with the sham-operated limb 3 days after the femoral artery ligation was perform (FIG. 20A) and compare the YFP+ cells over the different time points (FIG. 20A). The percentage of the YFP+CD31+CD11b-cell population which is considered the transdifferentiation population was analyzed further. […] To determine the role of the O-GlcNAcylation on the transdifferentiation, the Fsp1-Cre: R26R-EYFP mice that are undergoing vascular recovery with OSMI were treated, and the transdifferentiation population in the limb muscle tissue 7 days post-surgery was analyzed.

SMILES strings stand for the structures. “Also recorded” adds a separate entry of the source.

With `CCOC(=O)CN(Cc1cccs1)C(=O)[C@H](NS(=O)(=O)c1cc2ccc(=O)[nH]c2cc1Cl)c1ccccc1OC` [OSMI], the “iEC yield (number of CD31 expressing iECs generated during transdifferentiation)” value with BJ fibroblasts is “decreases; also recorded: impair”. The “transdifferentiation population (YFP+CD31+CD11b-) in limb muscle tissue” value in the experiment with ischemic hindlimb model is reported as “significantly reduced”.
